Results: PubChem BioAssay (NCI)
Values joined by “and” are separate entries in the source; they are usually repeats but may differ in a detail not shown here. Identical values can stand only once.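 These data come from cells grown in 96-well plates and exposed to compound for 48 hours at five concentrations. GI50: concentration for 50% inhibition of growth. TGI: total growth inhibition.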

Assays:
Experiment in all cases: NCI tumour cell line growth inhibition, 48 h
[1] = tested on: HOP-18 NSCLC
[2] = tested on: DMS 114 small cell lung
[3] = tested on: RXF-631 renal
[4] = tested on: SNB-78 CNS
[5] = tested on: MDA-N
[6] = tested on: MCF7 breast
[7] = tested on: MDA-MB-435
[8] = tested on: P388 leukemia
[9] = tested on: P388/ADR leukemia
[10] = tested on: MDA-MB-231 breast
[11] = tested on: NCI/ADR-RES ovarian

Row | SMILES | TGI [1] | TGI [2] | TGI [3] | TGI [4] | also measured
1 | CN(C)CCC(CCN(C)C)=NO | > 100 µM | > 100 µM | > 100 µM | > 100 µM | 
2 | CCOC(=O)C1=C(C)NC2=C(C(=O)N(c3ccccc3)C2c2ccccc2)C1c1ccccc1 (centres undefined) | 37.7 µM | 32.4 µM | 32.9 µM | 45.3 µM | 
3 | O=C(/C=C/c1ccccc1O)c1ccc([N+](=O)[O-])cc1 | > 100 µM | 24.7 µM | 89.9 µM | 89.1 µM | 
4 | O=C(CCc1ccccc1)NS(=O)(=O)c1ccccc1 | > 100 µM | > 100 µM | > 100 µM |  | 
5 | CCOc1ccc(/C=C/c2cc(OC)c(OC)c(OC)c2)cc1 | > 100 µM | 5.15 µM | > 38 µM | 0.85 µM | 
6 | Cn1c2c(c3ccccc31)CCN(CCCCN1CCN(c3ccccc3)CC1)C2=O | > 31.6 µM | > 79.1 µM | > 100 µM | > 100 µM | TGI [5]: 89.9 µM; TGI [6]: 63.2 µM; TGI [7]: 36.7 µM
7 | COc1ccc(C(=O)c2c3cc(OC)c(OC)c(OC)c3cc[n+]2C)cc1 | 80.6 µM | 75.7 µM | > 100 µM | > 100 µM | 
8 | NS(=O)(=O)c1ccc(NC(=O)Cc2nc3ccccc3s2)cc1 | 34.8 µM | 29.2 µM | 30.3 µM | 41.6 µM | 
9 | O=c1[nH]c(=O)n(C2CC(O)C(CO)O2)cc1C(F)(C(F)(F)F)C(F)(F)F (centres undefined) | > 100 µM | > 100 µM |  | > 100 µM | 
10 | CCOc1cn(C2OC(CO)C(O)C2O)c(=O)[nH]c1=O (centres undefined) | > 100 µM | > 100 µM |  | > 100 µM | 
11 | N#CCC(=O)N/N=C1/C(=O)N(c2cc(Cl)ccc2Cl)C(=O)C(=O)C1c1nc2ccccc2s1 (centres undefined) | > 100 µM | > 100 µM | > 100 µM | > 100 µM | 
12 | C=CC(=O)NC(N)=NC#N | 283 µM | 250 µM |  | 399 µM | TGI [8]: > 43.5 µM; TGI [9]: > 58 µM
13 | COc1ccc(C2ON(c3ccccc3)CC=C2C)cc1 (centres undefined) |  |  | > 100 µM | > 100 µM | 
14 | CCOC(=O)C(CCC(N)=O)(CCC(=O)OC)C(=O)OCC | > 100 µM | > 100 µM |  | > 100 µM | 
15 | CCn1c2ccccc2c(=O)c2c(OC)ccc(OC)c21 |  |  | > 100 µM |  | 
16 | CC(=O)OCCOCNC(=S)N/N=C/c1cc([N+](=O)[O-])ccc1O | > 100 µM | > 100 µM | > 100 µM | > 100 µM | 
17 | OCC[N+]12CCCN1CCC2 | > 100 µM | > 100 µM |  | > 100 µM | 
18 | Cc1[nH]c2ccccc2c1CC/C(=N\Nc1ccccc1)c1ccccc1 |  |  | > 100 µM | > 100 µM | 
19 | Cc1ccc(S(=O)(=O)N2CCN(C=S)CC2)cc1 | > 100 µM | > 100 µM | > 100 µM | > 100 µM | 
20 | CC(=O)O[C@H]1CCN2C(=O)C=CC(OCc3ccccc3)C12 (some centres undefined) | > 100 µM | > 100 µM |  | > 100 µM | 
21 | CC(C)(C)C(=O)Nc1cccc2oc(-c3ccccc3)cc12 | > 100 µM | > 100 µM | > 100 µM | > 100 µM | 
22 | COc1cc(/C=C2\CCC/C(=C\c3ccc(O)c(OC)c3)C2=O)ccc1O | 9.21 µM | 4.48 µM |  | 8.03 µM | TGI [5]: 12.5 µM; GI50 [10]: 2.85 µM; TGI [10]: 25.7 µM and 11.1 µM; GI50 [6]: 2.1 µM; TGI [6]: 40.5 µM and 9.81 µM; GI50 [7]: 1.42 µM; GI50 [11]: 2.34 µM; TGI [11]: 12.6 µM and 9.79 µM
23 | O=[N+]([O-])c1ccc(C(Cl)C(Cl)c2ccc(C(Cl)C(Cl)c3ccc([N+](=O)[O-])cc3[N+](=O)[O-])cc2)c([N+](=O)[O-])c1 (centres undefined) |  | 3.59 µM | 8.92 µM and 1.26 µM | > 62 µM and 52.8 µM | GI50 [3]: 0.336 µM; GI50 [4]: 0.762 µM
24 | Cc1ccc(NC(=O)CC/C(CC(=O)C(C)(C)C)=N\NC(=O)C[n+]2ccccc2)cc1C | > 100 µM | > 100 µM |  | > 100 µM | 
